{"source": "patent US20040214796A1", "about": "“Novel therapeutic application of enoxaparin” (AVENTIS PHARMA S.A., priority 2000, published 2004)", "key": {"cerebral ischemia [1]": {"tested_on": "cerebral ischemia", "assay": "Transient focal cerebral ischemia in rats (2 h clamp of left middle cerebral artery plus carotid ligation, then reperfusion), Studies 1-3", "assay_type": "in vivo, rat (male Sprague Dawley)", "details": "for reduction of the cortical lesion: vs control group; for CORTICAL LESION: mean ± S.E.M.", "procedure": "Male Sprague Dawley rats (230-250 g Iffa Credo) are fed and watered ad libitum and kept in a light-dark cycle of 12 hours. Surgery was carried out under halothane (1.4% in a mixture of 70% N2O/30% O2). During anesthesia, normothermia is maintained by placing the rat under a thermostated cover. The left common carotid artery is isolated and a loose ligature is put in place. The left middle cerebral artery is exposed via a subtemporal craniotomy and a microclamp is placed in the proximal region of the artery, immediately followed by the ligation of the carotid artery. Two hours later, the animals are reanesthetized and the cerebral circulation is reestablished by removing the clamp from the middle cerebral artery and the ligature from the carotid artery. The rats are then placed in their cage in a thermostated room at 26-28° C. 48 hours after the surgery, a neurological examination is carried out for each rat by an examiner unaware of the treatment. The neurological scale used is described in Table 1. [table] After the neurological examination, the rats are humanely killed and their brains removed. 1.5 mm thick serial sections are prepared and stained with 2,3,5-triphenyltetrazolium chloride (TTC) at 2%. After 24 hours of post-fixing in a 10% formaldehyde solution, the lesion areas (cerebral infarct) are measured at the cortical and striatal levels; the volumes are calculated by integrating the lesioned surface areas. The values are expressed in mm^3 (mean ±S.E.M). Statistical analysis was carried out by a Mann-Whitney test or by a Kruskal-Wallis test for non-parametric variance analysis followed by a Dunn test for comparison between groups (*:p<0.05, **:p<0.01, ***:p<0.001 vs control group). In Study 1, enoxaparin is administered to 12 rats at 1.5 mg/kg iv, 2 hours and 24 hours after the onset of the ischemia. A control group of 10 rats receives only the vehicle (physiological solution of sodium chloride at 0.9%) following the same protocol. In Study 2, the therapeutic window of opportunity for enoxaparin is explored. The treatment starts 5 hours after the ischemia followed by a second administration at 24 hours. This study consists in an enoxaparin dose-effect on the cerebral lesions. The doses studied are 0.5:1 and 1.5 mg/kg iv (9-10 rats per group). A control group of 11 rats receives only the vehicle (physiological solution of sodium chloride at 0.9%). In Study 3, enoxaparin is administered to 10 rats at 1.5 mg/kg iv, 5 and 24 hours after the onset of the ischemia. The control group of 13 rats receives only the vehicle (physiological solution of sodium chloride at 0.9%)."}, "cerebral ischemia [2]": {"tested_on": "cerebral ischemia", "assay": "Permanent focal cerebral ischemia in rats (left middle cerebral artery permanently cauterized, no carotid occlusion), Study 4", "assay_type": "in vivo, rat (male Sprague Dawley)", "details": "Study 4 (permanent occlusion), 2 × 1.5 mg/kg iv"}}, "note": "Marks after values point to notes of the source that are not given here.", "data": [{"substance": "Enoxaparin", "values": [{"measurement": "reduction of the cortical lesion", "setting": "cerebral ischemia [1]; Study 1, 2 × 1.5 mg/kg iv, 2 h and 24 h", "result": 30, "unit": "%"}, {"measurement": "CORTICAL LESION", "setting": "cerebral ischemia [1]; Study 1, 2 × 1.5 mg/kg iv, 2 h and 24 h after onset of ischemia, measured 48 h after surgery", "result": "131 ± 13* mm^3"}, {"measurement": "CORTICAL LESION", "setting": "cerebral ischemia [1]; Study 2, 2 × 0.5 mg/kg iv, 5 h and 24 h after ischemia", "result": "164 ± 15", "unit": "mm^3"}, {"measurement": "reduction of the cortical lesion", "setting": "cerebral ischemia [1]; Study 2, 2×1 mg/kg iv, 5 h and 24 h", "result": 30, "unit": "%"}, {"measurement": "CORTICAL LESION", "setting": "cerebral ischemia [1]; Study 2, 2 × 1 mg/kg iv, 5 h and 24 h after ischemia", "result": "142 ± 24* mm^3"}, {"measurement": "reduction of the cortical lesion", "setting": "cerebral ischemia [1]; Study 2, 2×1.5 mg/kg iv, 5 h and 24 h", "result": 36, "unit": "%"}, {"measurement": "CORTICAL LESION", "setting": "cerebral ischemia [1]; Study 2, 2 × 1.5 mg/kg iv, 5 h and 24 h after ischemia", "result": "129 ± 17* mm^3"}, {"measurement": "reduction of the cortical lesion", "setting": "cerebral ischemia [1]; Study 3, 2 × 1.5 mg/kg iv, 5 h and 24 h", "result": 34, "unit": "%"}, {"measurement": "CORTICAL LESION", "setting": "cerebral ischemia [1]; Study 3, 2 × 1.5 mg/kg iv, 5 h and 24 h after onset of ischemia", "result": "129 ± 16** mm^3"}, {"measurement": "bleeding", "setting": "cerebral ischemia [1]; during Studies 1-4, 0.5-1.5 mg/kg iv, two administrations", "result": "No problem of bleeding was encountered"}, {"measurement": "reduction of the cortical lesion", "setting": "cerebral ischemia [2]; 5 h and 24 h, vs control group", "result": 49, "unit": "%"}, {"measurement": "CORTICAL LESION", "setting": "cerebral ischemia [2]; 5 h and 24 h after onset of ischemia, mean ± S.E.M.", "result": "71 ± 13* mm^3"}]}]}
